Where a name gives a salt, the structure may show the parent alone.
Assays:
[1] = tested on: Male ICR mice; experiment: Mice tail suspension test; format: in vivo
From the text: (§1) The following method is used for testing the antidepression effect of the compound of the present application. ICR mice or SD rats, gavaged for two successive weeks, were subjected to mice swimming test, mice tail suspension test and rats swimming test. See below for details of the tests and results.
The animals, medicaments, calculation of dosages to the mice, preparation of drug solution and apparatus are the same as those in the mice swimming test.
The medicaments were correspondingly administered by gavage, once a day, to the animals in the groups for 14 successive days, with the amount of 0.2 ml per 10 g of body weight. The mice were subjected to tail suspension one hour later after the last oral administration. The suspension continued for 6 min.
The data was given as “average±standard deviation” (x±s). One-way analysis of variance (ANOVA) was used for data difference statistics. Differences among the groups were determined by P<0.05.

[2] = tested on: Male ICR mice; experiment: Mice swimming test; format: in vivo
From the text: as §1
Male ICR mice weighing 18 g to 20 g were used. They were fed on sterilized standard feed.
The compound administered in the test was 1-{2-[2,4-bis(trideuteriomethyl)phenylsulfanyl]phenyl}piperazine hydrobromic acid salt (XX for short). Vortioxetine (YY for short) was used as a control sample. Venlafaxine HCl (from Wyeth, USA) was used as a positive control.
Vortioxetine (15 mg) was combined with 10% hydroxypropyl-β-cyclodextrin to form a solution of 100 mL and was administered at daily dose of 3 mg/kg. 1-{2-[2,4-bis(trideuteriomethyl)phenylsulfanyl]phenyl}piperazine hydrobromic acid salt (15 mg and 7.5 mg) was combined with 10% hydroxypropyl-β-cyclodextrin to form two solutions of 100 mL and was administered at daily doses of 3 mg/kg and 1.5 mg/kg, respectively. Venlafaxine HCl (75 mg) was combined with 0.5% CMC-Na to form a solution of 100 mL and was administered at daily dose of […].
A recording and analysis system for small-animal behavior (Noldus) was used.
All the eighty mice were subjected to prescreening one day before the administration. The mice, fasted for 4 hours were put in a round glass tank (ø 14 cm×h 20 cm, with water of 10 cm depth and at a temperature of 25° C.) to swim. […] The whole swimming course was recorded by the video and the data were collected and analyzed automatically by Noldus software.
The forty qualified mice were divided into 4 groups, each of which had 10 mice, according to the Excel random grouping.
The medicaments were administered to each group by gavage with the amount of 0.2 ml per 10 g of body weight, once a day for 14 successive days. One hour later after the last oral administration, the mice were allowed to swim for 6 min. The video recorded the whole swimming course, and the Noldus software automatically collected and analyzed the data.
The data was given as “average±standard deviation” (x±s). One-way analysis of variance (one-way ANOVA) was used for data difference statistics. Differences among the groups were determined by P<0.05.

[3] = 30 mg/kg gavage, two successive weeks

COc1ccc(C(CN(C)C)C2(O)CCCCC2)cc1 (stereo not shown) [Venlafaxine, Venlafaxine HCl, reference compound]
effect on length of time that the tail-suspended mice stopped moving vs blank control [1, 3]: markedly shortened | Duration without Move within 6 min ([1]; mice tail suspension, gavage 14 days, 30 mg/kg, n = 10, x ± s): 180.6 ± 661.8 s | effect on length of time that the mice stopped swimming vs blank control [2, 3]: markedly shortened | Duration without Movement within the Last 4 min of the Whole 6 min ([2]; mice, gavage once a day for 14 days, 30 mg/kg, n = 10, x ± s): 173.6 ± 31.4 s

Source: US9896423B2, “Deuterium substituted 1-[2-(2,4-dimethyl-phenylsulfanyl)-phenyl]piperazine compound or derivatives thereof, and pharmaceutical composition and use thereof” (Jiangsu Jibeier Pharmaceutical Co. Ltd., priority 2014, dated 2018)
